Assay results as given in ChEMBL document CHEMBL5303304, “EUbOPEN Chemogenomics Library - IncuCyte” (2023).

Columns and labels:
Assay type in all cases: toxicity, cell-based
HEK-293T = test: Incucyte cell viability with HEK293T; conditions: human, 10 µM, compound concentration 10 uM
U2OS = test: Incucyte cell viability with U2OS; conditions: human, 10 µM, compound concentration 10 uM
Fibroblast = test: Incucyte cell viability with human fibroblast; conditions: 10 µM, compound concentration 10 uM
Also: unitless GR value; below 1 slowed growth and below 0 cell loss.

Row | SMILES | Growth Rate (HEK-293T; 6 h, replicate number 1) | Growth Rate (HEK-293T; 6 h, replicate number 2) | Growth Rate (HEK-293T; 12 h, replicate number 1) | Growth Rate (HEK-293T; 18 h, replicate number 1) | Growth Rate (HEK-293T; 18 h, replicate number 2) | Growth Rate (HEK-293T; 24 h, replicate number 1) | Growth Rate (U2OS; 6 h, replicate number 1) | Growth Rate (U2OS; 6 h, replicate number 2) | Growth Rate (U2OS; 12 h, replicate number 2) | Growth Rate (U2OS; 18 h, replicate number 1) | Growth Rate (U2OS; 24 h, replicate number 1) | Growth Rate (U2OS; 24 h, replicate number 2) | Growth Rate (Fibroblast; 6 h, replicate number 1) | Growth Rate (Fibroblast; 12 h, replicate number 1) | Growth Rate (Fibroblast; 18 h, replicate number 1) | Growth Rate (Fibroblast; 18 h, replicate number 2) | Growth Rate (Fibroblast; 24 h, replicate number 1) | Growth Rate (Fibroblast; 0 h, replicate number 1) | Growth Rate (Fibroblast; 24 h, replicate number 2) | Growth Rate (Fibroblast; 12 h, replicate number 2) | other results
1 | CCC(C(=O)Nc1ccc(-c2cc3ccccc3s2)c(C(N)=O)c1)c1nccs1 (stereo unspecified) | 0.31 | 0.23 | 0.59 | 0.48 | 0.61 | 0.47 | 0.65 | 0.92 | 0.59 | 0.47 | 0.72 | 0.86 | 0.22 | 0.72 | 0.93 | 0.9 | 0.96 |  |  |  | Growth Rate (HEK-293T; 12 h, replicate number 2): 0.52; Growth Rate (HEK-293T; 24 h, replicate number 2): 0.71; Growth Rate (U2OS; 0 h, replicate number 1): 0.65; Growth Rate (U2OS; 12 h, replicate number 1): 0.41; Growth Rate (U2OS; 18 h, replicate number 2): 0.8; Growth Rate (Fibroblast; 6 h, replicate number 2): -0.79
2 | CSc1nc2c(c(=O)n(C)c(=O)n2C)n1C |  | -0.14 |  |  | 1 |  | 0.84 | 0.49 | 0.74 |  |  | 0.97 | 0.03 | 0.58 | 0.87 |  | 0.71 | -1 | 0.92 |  | Growth Rate (HEK-293T; 0 h, replicate number 1): 0.12; Growth Rate (HEK-293T; 12 h, replicate number 2): 0.78; Growth Rate (U2OS; 0 h, replicate number 1): 0.57; Growth Rate (U2OS; 18 h, replicate number 2): 0.86; Growth Rate (Fibroblast; 0 h, replicate number 2): -0.52; Growth Rate (Fibroblast; 6 h, replicate number 2): -0.57
3 | CN1CCN(c2nc(N)c3ccccc3n2)CC1 |  | 0.91 |  |  |  |  | 0.43 | 0.36 | 0.53 | 0.76 | 0.77 | 0.83 | 0.45 | -1 | 0.78 |  |  |  |  | 0.67 | Growth Rate (HEK-293T; 0 h, replicate number 1): 0.4; Growth Rate (HEK-293T; 0 h, replicate number 2): 0.8; Growth Rate (U2OS; 0 h, replicate number 2): -0.89; Growth Rate (U2OS; 12 h, replicate number 1): 0.81
4 | Cc1ccc(-c2cn3nc(C(=O)NC4(c5ccc(F)cc5)CN(C)C4)c(C(C)C)c3c(=O)[nH]2)cc1C |  |  | 0.66 | 0.19 | 0.21 | 0.07 | 0.98 |  | 0.86 | 0.59 | 0.31 | 0.61 |  | 0.22 | 0.16 | 0.26 | 0.16 | -1 | 0.27 | 0.19 | Growth Rate (HEK-293T; 24 h, replicate number 2): 0.09; Growth Rate (U2OS; 12 h, replicate number 1): 0.9; Growth Rate (U2OS; 18 h, replicate number 2): 0.74; Growth Rate (Fibroblast; 6 h, replicate number 2): 0.39
5 | CC[C@@]1(c2ccccc2)NC(=O)N(Cc2ccccc2)C1=O |  |  |  | 0.95 | 0.86 | 0.84 | 0.55 |  |  |  |  | 0.99 | -0.93 |  |  | 0.7 |  | 0.94 | 0.58 | 0.07 | Growth Rate (HEK-293T; 0 h, replicate number 2): 0.93; Growth Rate (HEK-293T; 12 h, replicate number 2): 0.77; Growth Rate (HEK-293T; 24 h, replicate number 2): 0.82; Growth Rate (U2OS; 0 h, replicate number 2): -0.81; Growth Rate (Fibroblast; 0 h, replicate number 2): 0.5
6 | CCCCCCCC/C=C\CCCCCCCC(=O)NCc1ccc(O)c(OC)c1 [OLVANIL] | -0.94 |  | -0.75 | -0.47 |  | -0.25 | 0.77 | 0.84 | 0.94 | 0.88 | 0.87 |  |  |  |  | 0.53 | 0.91 | 0.97 | 0.68 | 0.83 | Growth Rate (HEK-293T; 0 h, replicate number 2): 0.7; Growth Rate (Fibroblast; 0 h, replicate number 2): -0.71
7 | COc1ccc(CCN(C)CCCC(C#N)(c2cc(OC)c(OC)c(OC)c2)C(C)C)cc1OC.Cl (stereo unspecified) [GALLOPAMIL HYDROCHLORIDE] | 0.31 |  | 0.9 |  | 0.94 |  |  |  |  |  |  | 1 | -0.5 | 0.03 |  | 0.41 |  | -0.26 | 0.73 | 0.12 | Growth Rate (HEK-293T; 12 h, replicate number 2): 0.97; Growth Rate (HEK-293T; 24 h, replicate number 2): 0.94; Growth Rate (U2OS; 0 h, replicate number 2): -0.88; Growth Rate (Fibroblast; 6 h, replicate number 2): 0.16
8 | CCN1C(=O)/C(=C(\NC2CCN(C)CC2)c2ccc3c(c2)OCO3)c2cc(C(C)=O)ccc21 | 0.44 | 0.16 | 0.64 | 0.63 | 0.77 | 0.71 | 0.59 | 0.61 | 0.81 |  | 0.89 | 0.95 | 0.42 | 0.32 | 0.7 | 0.5 | 0.64 | -1 | 0.76 | 0.27 | Growth Rate (HEK-293T; 12 h, replicate number 2): 0.78; Growth Rate (U2OS; 0 h, replicate number 1): 0.46; Growth Rate (U2OS; 0 h, replicate number 2): -0.34; Growth Rate (Fibroblast; 6 h, replicate number 2): 0.53
9 | Cc1sc(C(=O)c2cncnc2N[C@@H]2C[C@H](COS(N)(=O)=O)[C@@H](O)C2)cc1[C@@H]1NCCc2ccc(Cl)cc21 |  |  |  | 0.9 |  | 0.74 | 0.59 | -0.29 | -0.03 | 0.96 | 0.66 | 0.3 | 0.42 | 0.55 | 0.44 |  | 0.47 |  |  | 0.8 | Growth Rate (HEK-293T; 0 h, replicate number 1): -0.45; Growth Rate (HEK-293T; 0 h, replicate number 2): -0.97; Growth Rate (HEK-293T; 24 h, replicate number 2): 0.88; Growth Rate (U2OS; 0 h, replicate number 2): 0.29; Growth Rate (U2OS; 12 h, replicate number 1): 1; Growth Rate (U2OS; 18 h, replicate number 2): 0.17; Growth Rate (Fibroblast; 0 h, replicate number 2): -0.16
10 | C[C@@H]1CN(CC(=O)N2CC(C)(C)c3nc(CO)c(Cc4ccc(F)cc4)cc32)[C@@H](CN2CCOC[C@H]2C)CN1 [ASTX-660] |  |  |  | 0.97 |  | 0.89 |  |  |  |  | 0.98 |  |  |  |  |  |  |  |  |  | Growth Rate (HEK-293T; 0 h, replicate number 1): 0.18; Growth Rate (Fibroblast; 0 h, replicate number 2): 0.14
11 | O=C([O-])c1cc2cc(Cc3cccnc3)ccc2o1.[Na+] | 0.1 | 0.83 | 0.56 |  |  |  | 0.77 |  | 0.98 | 1 | 0.71 |  | 0.42 |  |  |  |  |  |  | 0.64 | Growth Rate (HEK-293T; 0 h, replicate number 2): 0.2; Growth Rate (U2OS; 0 h, replicate number 1): -0.13; Growth Rate (U2OS; 12 h, replicate number 1): 0.4
